Entries after “also recorded” stand apart in the source; their conditions may differ. Structures can show the parent of a compound that is named as a salt. Where a SMILES comes first, the peptide text is derived from it. [ ]: non-standard residue; d: D form. The star is where a group is joined. Sta = CC(C)C[C@H](N)[C@@H](O)CC(=O)O; Isovaleryl = CC(C)CC(=O)*; CH2Cl = ClC*
Assays:
BNP1-32 hydrolysis = BNP1-32 hydrolysis in heparin plasma treated with protease inhibitors, room temperature, MSIA; format: biochemical, human; details: for effect on BNP hydrolysis: BNP1-32 10 ng/mL
From the text: (§1) In order to observe, characterize and identify the BNP hydrolysis products a Mass Spectrometric Immunoassay (MSIA) was developed and employed in the analysis of BNP. This technique is broadly described in, e.g., Nelson et al. (1995) Anal. Chem. 67, 1153-1158; Tubbs et al. (2001) Anal. Biochem. 289, 26-35; Kiernan et al. (2002) Anal. Biochem. 301, 49-56; Niederkofler et al. (2003) J. Lipid Res. 44, 630-639 and U.S. Pat. Nos. 6,783,672; 6,974,704; 7,083,723; 7,083,724; 7,087,163; 7,087,164; 7,087,165; and 7,087,163. The basic methodology is described in the context of BNP although the technique is also applicable to ANP and other peptides of interest.
(§2) Briefly, MSIA entails the use of affinity capture, to extract BNP and many of its' hydrolysis products for mass spectrometric detection, to observe and identify products of BNP hydrolysis. Therefore, synthesized BNP1-32 was added to room temperature plasma (from blood collected in heparinized blood collection tubes). At a several times post-spiking BNP1-32 into the plasma, aliquots of the spiked plasma were analyzed to monitor the progress of BNP1-32 hydrolysis. The results of performing a series of analyses on aliquots removed and analyzed every hour for up to six hours post-addition of BNP1-32 at 100 ng/mL are shown in FIG. 2. […] The last two species are indistinguishable in the chart due to similar amino acid compositions. […]
Next, the individual protease inhibitors, including some of those included in protease inhibitor cocktail set III (EMD) were tested using the protocols described supra. Briefly, aliquots of heparin plasma were treated with each one of the protease inhibitors. To each aliquot of plasma, BNP1-32 was added at 10 ng/mL and incubated at room temperature. Aliquots were sequentially removed and analyzed for BNP hydrolysis.
Briefly, aliquots of heparin plasma were treated with each one of these protease inhibitors. To each aliquot of plasma, BNP1-32 was added at 10 ng/mL and incubated at room temperature. Aliquots were sequentially removed and analyzed for BNP hydrolysis.
Further testing added to the list of inexpensive protease inhibitors effective in combination with AEB SF in avoiding adducts starting with benzamidine hydrochloride (Calbiochem catalog no. 199001). […] Briefly, aliquots of heparin plasma were treated with the protease inhibitor. To each aliquot of plasma, BNP1-32 was added at 10 ng/mL and incubated at room temperature. Aliquots were sequentially removed and analyzed for BNP hydrolysis.
In addition, PPACK I dihydrochloride (Calbiochem catalog no. 520222) and PPACK II trifluoroacetate salt (Calbiochem catalog no. 520219) were also tested at a concentration of 1 mM each. […]

[1] = weak basic conditions (pH 8-9); cited from earlier work
BNP hydrolysis [2] = assay: BNP hydrolysis in EDTA versus heparin plasma at room temperature, MSIA; format: biochemical, human; details: plasma spiked with BNP1-32, room temperature, aliquots at 1 hour and 2 hours
Protocol: Blood from a single individual was collected in both heparin and EDTA blood collection tubes. The collected blood was centrifuged to remove cellular components and the supernatant (plasma) was collected. To the EDTA and heparin plasma, BNP1-32 was added and incubated at room temperature with aliquots removed for analysis of BNP hydrolysis at 1 hour and 2 hours.

BNP hydrolysis [3] = assay: BNP stability in plasma stored at -70 C, MSIA; format: biochemical, human; details: tested on day of collection and six months later
Protocol: The limited proteolysis prior to the addition of the protease inhibitors is preserved in the sample. The sampled plasma was assayed for the presence of BNP fragments on the day of collection and then six month later. […] This may reflect the presence of metalloproteinases in heparinized blood.
To examine this, BNP peptides corresponding to those previously identified as products resulting from the hydrolysis of BNP1-32 were synthesized and added to EDTA plasma treated with 10 mM AEBSF and 20 mM Benzamidine. An aliquot of the sample was analyzed for the added BNP peptides soon after the addition of the peptides to the plasma, while the rest of the plasma was stored at −70° C. for 7 weeks. After 7 weeks of storage the plasma was removed from the freezer, thawed and analyzed for the existence of the added BNP peptides.

proteolysis of BNP = details: sampled blood or plasma; cited from earlier work
[4] = cited from earlier work
[5] = after separation of plasma from whole blood; cited from earlier work
[6] = Time course of BNP1-32 hydrolysis in plasma without inhibitor, by mass spectrometric immunoassay (MSIA); format: in vitro ADME, human; details: heparin plasma, no inhibitor, room temperature, BNP1-32 at 100 ng/mL, four hours after addition
From the text: as §1, §2

Which results are given for `Cl.NCCc1ccc(S(=O)(=O)F)cc1` [AEBSF, 4-(2-Aminoethyl) benzenesulfonyl fluoride hydrochloride]?
effect on BNP hydrolysis (BNP1-32 hydrolysis; inhibitor at 1 mM, hydrochloride): slowed the hydrolysis of BNP; also recorded: reduced BNP proteolysis; effect on BNP hydrolysis (BNP1-32 hydrolysis; inhibitor at 2.5 mM, hydrochloride): almost completely inhibited the hydrolysis of BNP; also recorded: reduced BNP proteolysis; effect on BNP hydrolysis (BNP1-32 hydrolysis; inhibitor at 5 mM, hydrochloride): almost completely inhibited the hydrolysis of BNP; also recorded: reduced BNP proteolysis; hydrolysis of the inhibitor [1]: slow hydrolysis

For `N=C(N)c1ccccc1` [Benzamidine hydrochloride, Benzamidine], which “effectiveness in slowing BNP hydrolysis relative to other inhibitors” value (BNP1-32 hydrolysis; 1 mM) is on record?
The value was “better than PPACK I and PPACK II, but it was not as effective as AEBSF”.

And the “effect on BNP hydrolysis” value (BNP1-32 hydrolysis; inhibitor at 1 mM)?
Its value is “slowed the hydrolysis of BNP”.

And the “effect on BNP hydrolysis” value (BNP1-32 hydrolysis; inhibitor at 1 mM, listed as Benzamidine)?
Its value is “reduced BNP proteolysis”.

With `CC(C)C[C@H](NC(=O)[C@@H](O)[C@H](N)Cc1ccccc1)C(=O)O` [Bestatin] as the compound, how does the “effect on BNP hydrolysis” value (BNP1-32 hydrolysis; inhibitor at 0.5 mM) read?
The value was “little or no effect on BNP proteolysis; also recorded: did not appreciably prevent the hydrolysis of BNP”.

With `CC(C)C[C@H](NC(=O)[C@H]1O[C@@H]1C(=O)O)C(=O)NCCCCN=C(N)N` [E64] as the compound, how does the “effect on BNP hydrolysis” value (BNP1-32 hydrolysis; inhibitor at 1 mM) read?
The value was “little or no effect on BNP proteolysis; also recorded: did not appreciably prevent the hydrolysis of BNP”.

Which “effect of anti-coagulant on BNP hydrolysis” value (“effect of anti-coagulant” for short) (BNP hydrolysis [2]) does the source give for `O=C([O-])CN(CCN(CC(=O)[O-])CC(=O)O)CC(=O)[O-].[Na+].[Na+].[Na+]` [EDTA, ethylenediamine tetracetic acid] here?
The value was “BNP hydrolysis stops with the formation of the BNP3-32; also recorded: reduce BNP hydrolysis”.

And the “BNP hydrolysis in EDTA plasma without protease inhibitors” value (BNP hydrolysis [3])?
Its value is “the hydrolysis stops at the formation of the BNP3-32; also recorded: proteolysis of BNP1-32 leading to the formation of BNP3-32”.

Which “effect on BNP hydrolysis” value (BNP1-32 hydrolysis; inhibitor at 0.1 mM) does the source give for `CC(=O)N[C@@H](CC(C)C)C(=O)N[C@@H](CC(C)C)C(=O)N[C@H](C=O)CCCNC(=N)N` [Leupeptin] here?
The value was “slowed the hydrolysis of BNP”.

And the “effect on BNP hydrolysis” value (BNP1-32 hydrolysis; inhibitor at 1 mM)?
Its value is “slow BNP proteolysis”.

With `NC(N)=NCCC[C@H](NC(=O)[C@H](Cc1ccccc1)NC(=O)[C@H](N)Cc1ccccc1)C(=O)CCl` [PPACK II] (H-[dF]-Phe-Arg-CH2Cl) as the compound, how does the “effect on BNP hydrolysis” value (BNP1-32 hydrolysis; inhibitor at 1 mM) read?
The value was “slowed the rate of BNP hydrolysis; also recorded: reduced BNP proteolysis”.

Which “effect on BNP hydrolysis” value (BNP1-32 hydrolysis; inhibitor at 1 mM) does the source give for `Cl.Cl.NC(N)=NCCC[C@H](NC(=O)[C@@H]1CCCN1C(=O)[C@H](N)Cc1ccccc1)C(=O)CCl` [PPACK I] here?
Its value is “slowed the rate of BNP hydrolysis; also recorded: reduced BNP proteolysis”.

Which “effectiveness in arresting proteolysis of BNP” value (proteolysis of BNP) does the source give for `NC(N)=NCCC[C@H](NC(=O)[C@@H]1CCCN1C(=O)[C@H](N)Cc1ccccc1)C(=O)CCl` [PPACK] here?
The value was “most effective in arresting proteolysis of BNP”.

With `CC(C)CC(=O)N[C@H](C(=O)N[C@H](C(=O)N[C@@H](CC(C)C)[C@@H](O)CC(=O)N[C@@H](C)C(=O)N[C@@H](CC(C)C)[C@@H](O)CC(=O)O)C(C)C)C(C)C` [Pepstatin A] (Isovaleryl-VV[Sta]A[Sta]-OH) as the compound, how does the “effect on BNP hydrolysis” value (BNP1-32 hydrolysis; inhibitor at 0.1 mM) read?
Its value is “little or no effect on BNP proteolysis; also recorded: did not appreciably prevent the hydrolysis of BNP”.

Which results are given for “BNP1-32: 32-amino acid B-type natriuretic peptide; synthesized BNP1-32 spiked into plasma”?
half-life (t1/2) in vivo [4]: approximately 20 minutes; time within which BNP is proteolyzed in vitro [5]: ≤ 24 h; hydrolysis of BNP1-32 in plasma [6]: all of the BNP1-32 appears to have been processed into smaller peptides

Which “effect of anti-coagulant” value (BNP hydrolysis [2]) does the source give for Heparin here?
The value was “relatively ineffective in preventing BNP proteolysis”.

What about the “effect of anti-coagulant” value (BNP hydrolysis [2]; listed as heparin) of the same compound?
Its value is “progress towards the production of BNP hydrolysis products smaller than the BNP3-32”.

Source: patent US10641781B2, “Method, composition and device for sampling natriuretic peptides in a biological fluid” (CRIMSON U.S. ASSETS, LLC, priority 2008, dated 2020)
